Test results from patent publication US9951065B2 (Gilead Sciences, Inc., priority 2015, dated 2018).

The molecules below were run against T1, IDO1 (Homo sapiens, UniProt P14902) (assay: Cell-based (HeLa) assay for measurement of IDO1 inhibition (kynurenine levels in supernatant after IFNγ induction)). Details: HeLa cells, IFNγ-induced IDO1, kynurenine in supernatant after 48 hour incubation; geometric mean of a minimum of four determinations.
T1 construct: HeLa cells were treated with a test compound in the presence of IFNγ, which induces IDO1 expression; host or cells: H1-HeLa cells, IDO1 induced with IFNγ
T1 sequence (P14902 whole entry): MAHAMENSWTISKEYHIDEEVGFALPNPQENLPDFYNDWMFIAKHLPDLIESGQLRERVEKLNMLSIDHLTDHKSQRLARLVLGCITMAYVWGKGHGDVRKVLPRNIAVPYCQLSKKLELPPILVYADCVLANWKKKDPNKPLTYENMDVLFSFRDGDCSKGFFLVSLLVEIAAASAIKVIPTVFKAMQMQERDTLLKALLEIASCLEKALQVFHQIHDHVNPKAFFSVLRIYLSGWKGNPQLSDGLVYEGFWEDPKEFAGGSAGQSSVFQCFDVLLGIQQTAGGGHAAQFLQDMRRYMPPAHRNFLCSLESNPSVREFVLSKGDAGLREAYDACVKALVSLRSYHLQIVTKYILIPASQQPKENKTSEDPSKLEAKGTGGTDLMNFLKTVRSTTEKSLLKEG
Procedure, shortened: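 IDO1 activity is read as kynurenine released into the medium, detected with Ehrlich's reagent (p-dimethylaminobenzaldehyde) at 480 nm after TCA treatment. HeLa cells were exposed 48 h to compounds in 0.5% DMSO alongside IFNγ induction. Values normalized to no-IFNγ and IFNγ controls; four-parameter EC50 given as geometric mean of ≥4 determinations.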
With CCNc1nc2nccc(/C(=N/O)Nc3ccc(F)c(Cl)c3)c2[nH]1 [Example 163, N-(3-Chloro-4-fluorophenyl)-2-(ethylamino)-N′-hydroxy-1H-imidazo[4,5-b]pyridine-7-carboximidamide] the EC50 was 1.08 µM. O/N=C(\Nc1ccc(F)c(Cl)c1)c1ccnc2nc(NC3CCC3)[nH]c12 [Example 164, N-(3-Chloro-4-fluorophenyl)-2-(cyclobutylamino)-N′-hydroxy-1H-imidazo[4,5-b]pyridine-7-carboximidamide] showed an EC50 of 0.798 µM. For CC(C)Nc1nc2nccc(/C(=N/O)Nc3ccc(F)c(Cl)c3)c2[nH]1 [Example 165, N-(3-Chloro-4-fluorophenyl)-N′-hydroxy-2-(isopropylamino)-1H-imidazo[4,5-b]pyridine-7-carboximidamide], the EC50 was 0.705 µM. CNc1nc2nccc(/C(=N/O)Nc3cccc(Cl)c3)c2[nH]1 [Example 166, N-(3-Chlorophenyl)-N′-hydroxy-2-(methylamino)-1H-imidazo[4,5-b]pyridine-7-carboximidamide] was tested, and the EC50 was 0.383 µM. Molecule CCN(CC)CCNc1nc2nccc(/C(=N/O)Nc3ccc(F)c(Cl)c3)c2[nH]1 [Example 167, N-(3-Chloro-4-fluorophenyl)-2-((2-(diethylamino)ethyl)amino)-N′-hydroxy-1H-imidazo[4,5-b]pyridine-7-carboximidamide] has an EC50 of 2.91 µM. Work on O/N=C(\Nc1ccc(F)c(Cl)c1)c1ccnc2nc(NCCN3CCOCC3)[nH]c12 [Example 168, N-(3-Chloro-4-fluorophenyl)-N′-hydroxy-2-((2-morpholinoethyl)amino)-1H-imidazo[4,5-b]pyridine-7-carboximidamide] yielded an EC50 of 1.16 µM. Work on CN(C)c1nc2nccc(/C(=N/O)Nc3ccc(F)c(Cl)c3)c2[nH]1 [Example 169, N-(3-Chloro-4-fluorophenyl)-2-(dimethylamino)-N′-hydroxy-1H-imidazo[4,5-b]pyridine-7-carboximidamide] yielded an EC50 of 6.27 µM. In the case of O/N=C(\Nc1ccc(F)c(C(F)(F)F)c1)c1ccnc2[nH]c(CCl)nc12 [Example 170, 2-(Chloromethyl)-N-(4-fluoro-3-(trifluoromethyl)phenyl)-N′-hydroxy-3H-imidazo[4,5-b]pyridine-7-carboximidamide], the EC50 is reported as 1.94 µM. In the case of OCc1nc2c(/C(=N/O)Nc3ccc(F)c(C(F)(F)F)c3)ccnc2[nH]1 [Example 171, N-(4-Fluoro-3-(trifluoromethyl)phenyl)-N′-hydroxy-2-(hydroxymethyl)-3H-imidazo[4,5-b]pyridine-7-carboximidamide], the EC50 is reported as 4 µM. CC(O)c1nc2nccc(/C(=N/O)Nc3ccc(F)c(Cl)c3)c2[nH]1 (centres unmarked) [Example 172, N-(3-Chloro-4-fluorophenyl)-N′-hydroxy-2-(1-hydroxyethyl)-1H-imidazo[4,5-b]pyridine-7-carboximidamide] gave an EC50 of 3.86 µM. With O/N=C(\Nc1ccc(F)c(Cl)c1)c1ccnc2nc(C(O)c3ccccc3)[nH]c12 (centres unmarked) [Example 173, N-(3-Chloro-4-fluorophenyl)-N′-hydroxy-2-(hydroxy(phenyl)methyl)-1H-imidazo[4,5-b]pyridine-7-carboximidamide] the EC50 was 9.7 µM. Molecule O/N=C(\Nc1ccc(F)c(Cl)c1)c1ccnc2nc(C(O)C3CC3)[nH]c12 (centres unmarked) [Example 174, N-(3-Chloro-4-fluorophenyl)-2-(cyclopropyl(hydroxy)methyl)-N′-hydroxy-1H-imidazo[4,5-b]pyridine-7-carboximidamide] has an EC50 of 7.09 µM. CC(C)(O)c1nc2nccc(/C(=N/O)Nc3ccc(F)c(Cl)c3)c2[nH]1 [Example 175, N-(3-Chloro-4-fluorophenyl)-N′-hydroxy-2-(2-hydroxypropan-2-yl)-1H-imidazo[4,5-b]pyridine-7-carboximidamide] gave an EC50 of 6.42 µM. Work on O/N=C(\Nc1ccc(F)c(Cl)c1)c1ccnc2nc(C(O)C(F)(F)F)[nH]c12 (centres unmarked) [Example 176, N-(3-Chloro-4-fluorophenyl)-N′-hydroxy-2-(2,2,2-trifluoro-1-hydroxyethyl)-1H-imidazo[4,5-b]pyridine-7-carboximidamide] yielded an EC50 of 4.2 µM.
